Key:
hSYK = target: T1, hSYK (Homo sapiens, UniProt P43405); assay: KINOMEscan; format: binding
T1 construct: purchased DiscoverX (KINOMEscan platform)

hRIOK1 = target: T2, hRIOK1 (Homo sapiens, UniProt Q9BRS2); assay: KINOMEscan; format: binding
T2 construct: purchased DiscoverX (KINOMEscan platform)

hRSK2(Kin.Dom.2-C-term) = target: T3, hRSK2(Kin.Dom.2-C-term) (Homo sapiens, UniProt P51812); assay: KINOMEscan; format: binding
T3 construct: hRSK2(Kin.Dom.2-C-term); purchased DiscoverX (KINOMEscan platform)

hAMPK-alpha2 = target: T4, hAMPK-alpha2 (Homo sapiens, UniProt P54646); assay: KINOMEscan; format: binding
T4 construct: purchased DiscoverX
T4 sequence (P54646 whole entry): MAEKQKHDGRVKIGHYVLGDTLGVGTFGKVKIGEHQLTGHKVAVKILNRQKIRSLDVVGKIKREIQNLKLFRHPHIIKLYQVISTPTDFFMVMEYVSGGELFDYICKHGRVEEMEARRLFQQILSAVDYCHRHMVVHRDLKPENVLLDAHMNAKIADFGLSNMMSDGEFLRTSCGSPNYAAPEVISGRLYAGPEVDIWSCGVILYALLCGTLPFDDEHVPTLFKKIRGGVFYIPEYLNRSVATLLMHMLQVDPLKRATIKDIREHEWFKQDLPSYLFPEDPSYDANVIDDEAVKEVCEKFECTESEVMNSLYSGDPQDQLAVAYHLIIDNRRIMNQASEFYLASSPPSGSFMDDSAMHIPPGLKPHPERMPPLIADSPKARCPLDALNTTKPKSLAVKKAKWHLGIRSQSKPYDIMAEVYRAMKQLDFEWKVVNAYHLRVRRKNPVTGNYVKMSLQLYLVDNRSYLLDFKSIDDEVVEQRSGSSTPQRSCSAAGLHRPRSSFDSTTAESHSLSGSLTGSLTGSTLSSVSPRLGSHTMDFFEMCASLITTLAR

hFAK = target: T5, hFAK (Homo sapiens, UniProt Q05397); assay: KINOMEscan; format: binding
T5 construct: purchased DiscoverX

hYANK2 = target: T6, hYANK2 (Homo sapiens, UniProt Q9NY57); assay: KINOMEscan; format: binding
T6 construct: purchased DiscoverX
T6 sequence (Q9NY57 whole entry): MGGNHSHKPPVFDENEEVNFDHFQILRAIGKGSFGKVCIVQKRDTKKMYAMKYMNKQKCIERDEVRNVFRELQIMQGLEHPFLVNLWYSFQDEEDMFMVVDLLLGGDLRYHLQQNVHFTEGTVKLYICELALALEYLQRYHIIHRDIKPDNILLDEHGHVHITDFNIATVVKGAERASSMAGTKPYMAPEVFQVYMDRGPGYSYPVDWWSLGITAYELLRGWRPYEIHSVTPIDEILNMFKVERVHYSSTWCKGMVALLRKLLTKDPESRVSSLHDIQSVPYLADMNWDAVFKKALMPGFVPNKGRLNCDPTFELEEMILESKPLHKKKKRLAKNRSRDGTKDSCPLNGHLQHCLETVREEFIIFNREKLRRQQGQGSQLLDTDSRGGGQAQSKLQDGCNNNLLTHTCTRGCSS

hCLK4 = target: T7, hCLK4 (Homo sapiens, UniProt Q9HAZ1); assay: KINOMEscan; format: binding
T7 construct: purchased DiscoverX (KINOMEscan platform)
T7 sequence (Q9HAZ1 whole entry): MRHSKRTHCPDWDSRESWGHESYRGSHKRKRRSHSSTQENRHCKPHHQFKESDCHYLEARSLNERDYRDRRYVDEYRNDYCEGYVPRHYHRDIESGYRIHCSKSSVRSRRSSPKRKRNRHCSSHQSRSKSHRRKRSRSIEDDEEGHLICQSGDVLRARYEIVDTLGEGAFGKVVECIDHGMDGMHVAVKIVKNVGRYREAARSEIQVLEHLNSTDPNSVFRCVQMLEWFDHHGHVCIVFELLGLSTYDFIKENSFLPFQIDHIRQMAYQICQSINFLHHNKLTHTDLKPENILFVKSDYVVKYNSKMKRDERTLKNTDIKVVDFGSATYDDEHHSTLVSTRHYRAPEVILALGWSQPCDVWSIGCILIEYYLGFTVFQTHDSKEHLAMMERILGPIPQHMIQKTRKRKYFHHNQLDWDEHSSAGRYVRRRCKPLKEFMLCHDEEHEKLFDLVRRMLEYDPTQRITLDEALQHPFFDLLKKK

hM2 = target: T8, hM2 (Homo sapiens, UniProt P08172); assay: β-arrestin Potentiation (Eurofins-CEREP); details: @ 10 μM
T8 sequence (P08172 1-466): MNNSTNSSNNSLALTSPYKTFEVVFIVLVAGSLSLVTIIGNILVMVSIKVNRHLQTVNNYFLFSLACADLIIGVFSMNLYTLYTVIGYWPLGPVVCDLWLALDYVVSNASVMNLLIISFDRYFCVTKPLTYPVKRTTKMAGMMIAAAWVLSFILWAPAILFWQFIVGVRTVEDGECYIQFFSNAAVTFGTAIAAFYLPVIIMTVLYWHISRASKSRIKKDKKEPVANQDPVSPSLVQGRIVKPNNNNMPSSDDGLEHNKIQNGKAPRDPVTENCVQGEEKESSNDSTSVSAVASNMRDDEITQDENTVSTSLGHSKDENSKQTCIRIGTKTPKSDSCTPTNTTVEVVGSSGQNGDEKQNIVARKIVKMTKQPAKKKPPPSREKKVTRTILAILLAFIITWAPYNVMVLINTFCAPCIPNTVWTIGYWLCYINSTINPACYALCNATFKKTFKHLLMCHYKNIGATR

hERBB3 = target: T9, hERBB3 (Homo sapiens, UniProt P21860); assay: KINOMEscan; format: binding
T9 construct: purchased DiscoverX

hABL1(T315I) = target: T10, hABL1(T315I) (Homo sapiens, UniProt P00519, T315I); assay: KINOMEscan; format: binding
T10 construct: purchased DiscoverX (KINOMEscan platform)

hCSNK2A2 = target: T11, hCSNK2A2 (Homo sapiens, UniProt P19784); assay: KINOMEscan; format: binding
T11 construct: purchased DiscoverX (KINOMEscan platform)

hHIPK1 = target: T12, hHIPK1 (Homo sapiens, UniProt Q86Z02); assay: KINOMEscan; format: binding
T12 construct: purchased DiscoverX

hD2L = hD2L (Homo sapiens, UniProt P14416); assay: cAMP Agonist (Eurofins-CEREP); details: @ 10 μM
hKIT(L576P) = target: T13, hKIT(L576P) (Homo sapiens, UniProt P10721, L576P); assay: KINOMEscan; format: binding
T13 construct: purchased DiscoverX (KINOMEscan panel)

hEPHB2 = target: T14, hEPHB2 (Homo sapiens, UniProt P29323); assay: KINOMEscan; format: binding
T14 construct: purchased DiscoverX
T14 sequence (P29323 19-1055): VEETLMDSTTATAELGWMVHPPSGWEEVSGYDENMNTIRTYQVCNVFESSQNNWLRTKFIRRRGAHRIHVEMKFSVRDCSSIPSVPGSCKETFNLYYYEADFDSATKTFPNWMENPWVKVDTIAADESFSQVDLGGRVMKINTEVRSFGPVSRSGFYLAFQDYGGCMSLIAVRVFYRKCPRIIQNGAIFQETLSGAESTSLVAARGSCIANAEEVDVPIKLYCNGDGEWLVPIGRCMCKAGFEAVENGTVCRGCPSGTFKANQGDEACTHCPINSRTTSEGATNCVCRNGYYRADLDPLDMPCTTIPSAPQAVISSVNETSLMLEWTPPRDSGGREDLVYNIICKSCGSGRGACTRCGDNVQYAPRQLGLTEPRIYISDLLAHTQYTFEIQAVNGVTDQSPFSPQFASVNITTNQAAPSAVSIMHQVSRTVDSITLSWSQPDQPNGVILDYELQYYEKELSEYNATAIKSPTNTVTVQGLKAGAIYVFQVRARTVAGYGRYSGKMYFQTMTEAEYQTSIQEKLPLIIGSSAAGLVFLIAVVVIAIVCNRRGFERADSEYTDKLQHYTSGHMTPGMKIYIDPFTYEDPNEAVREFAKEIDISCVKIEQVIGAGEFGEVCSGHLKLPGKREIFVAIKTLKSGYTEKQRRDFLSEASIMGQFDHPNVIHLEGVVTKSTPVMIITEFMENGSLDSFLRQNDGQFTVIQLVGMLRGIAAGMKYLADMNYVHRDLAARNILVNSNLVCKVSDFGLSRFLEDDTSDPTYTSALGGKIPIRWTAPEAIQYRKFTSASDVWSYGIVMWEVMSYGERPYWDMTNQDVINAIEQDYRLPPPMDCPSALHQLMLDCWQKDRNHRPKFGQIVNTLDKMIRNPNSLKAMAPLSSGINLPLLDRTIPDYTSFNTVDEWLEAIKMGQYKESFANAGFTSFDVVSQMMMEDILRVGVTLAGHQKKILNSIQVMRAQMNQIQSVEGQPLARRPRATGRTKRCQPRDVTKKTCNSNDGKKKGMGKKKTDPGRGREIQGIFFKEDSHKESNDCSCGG

hTGFBR2 = target: T15, hTGFBR2 (Homo sapiens, UniProt P37173); assay: KINOMEscan; format: binding
T15 construct: purchased DiscoverX

hERBB4 = target: T16, hERBB4 (Homo sapiens, UniProt Q15303); assay: KINOMEscan; format: binding
T16 construct: purchased DiscoverX

hHIPK3 = target: T17, hHIPK3 (Homo sapiens, UniProt Q9H422); assay: KINOMEscan; format: binding
T17 construct: purchased DiscoverX

hFRK = target: T18, hFRK (Homo sapiens, UniProt P42685); assay: KINOMEscan; format: binding
T18 construct: purchased DiscoverX
T18 sequence (P42685 whole entry): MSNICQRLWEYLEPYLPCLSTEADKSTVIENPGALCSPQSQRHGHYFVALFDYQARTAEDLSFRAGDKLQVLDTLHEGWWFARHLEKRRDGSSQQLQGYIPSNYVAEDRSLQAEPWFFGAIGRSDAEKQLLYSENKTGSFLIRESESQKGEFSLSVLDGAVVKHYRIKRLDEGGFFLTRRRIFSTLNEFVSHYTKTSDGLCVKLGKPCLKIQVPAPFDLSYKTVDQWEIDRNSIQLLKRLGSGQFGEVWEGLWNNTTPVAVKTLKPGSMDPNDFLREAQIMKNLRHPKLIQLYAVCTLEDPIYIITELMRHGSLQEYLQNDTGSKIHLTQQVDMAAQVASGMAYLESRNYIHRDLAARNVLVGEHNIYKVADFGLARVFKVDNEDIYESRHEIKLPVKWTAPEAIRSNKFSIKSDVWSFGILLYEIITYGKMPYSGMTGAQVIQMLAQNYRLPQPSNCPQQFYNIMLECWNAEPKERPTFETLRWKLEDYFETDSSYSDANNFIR

hTEC = target: T19, hTEC (Homo sapiens, UniProt P42680); assay: KINOMEscan; format: binding
T19 construct: purchased DiscoverX

hRIOK2 = target: T20, hRIOK2 (Homo sapiens, UniProt Q9BVS4); assay: KINOMEscan; format: binding
T20 construct: purchased DiscoverX (KINOMEscan platform)

hWEE1 = target: T21, hWEE1 (Homo sapiens, UniProt P30291); assay: KINOMEscan; format: binding
T21 construct: purchased DiscoverX

hRSK3(Kin.Dom.2-C-term) = target: T22, hRSK3(Kin.Dom.2-C-term) (Homo sapiens, UniProt Q15349); assay: KINOMEscan; format: binding
T22 construct: hRSK3(Kin.Dom.2-C-term); purchased DiscoverX (KINOMEscan platform)
T22 sequence (Q15349 415-672 limits assumed): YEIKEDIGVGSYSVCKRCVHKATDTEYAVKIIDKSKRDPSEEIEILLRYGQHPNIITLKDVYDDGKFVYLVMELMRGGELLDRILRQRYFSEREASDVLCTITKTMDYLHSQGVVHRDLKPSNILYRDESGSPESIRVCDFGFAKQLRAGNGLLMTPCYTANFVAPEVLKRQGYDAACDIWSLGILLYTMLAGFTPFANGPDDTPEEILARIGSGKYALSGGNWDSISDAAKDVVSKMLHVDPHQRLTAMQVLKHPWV

hMAP3K15 = target: T23, hMAP3K15 (Homo sapiens, UniProt Q6ZN16); assay: KINOMEscan; format: binding
T23 construct: purchased DiscoverX (KINOMEscan platform)

hVRK2 = target: T24, hVRK2 (Homo sapiens, UniProt Q86Y07); assay: KINOMEscan; format: binding
T24 construct: purchased DiscoverX

hADRα2A = target: T25, hADRα2A (Homo sapiens, UniProt P08913); assay: β-arrestin Antagonist (Eurofins-CEREP); details: read-out: % Effect, Inhibition
T25 sequence (P08913 1-465): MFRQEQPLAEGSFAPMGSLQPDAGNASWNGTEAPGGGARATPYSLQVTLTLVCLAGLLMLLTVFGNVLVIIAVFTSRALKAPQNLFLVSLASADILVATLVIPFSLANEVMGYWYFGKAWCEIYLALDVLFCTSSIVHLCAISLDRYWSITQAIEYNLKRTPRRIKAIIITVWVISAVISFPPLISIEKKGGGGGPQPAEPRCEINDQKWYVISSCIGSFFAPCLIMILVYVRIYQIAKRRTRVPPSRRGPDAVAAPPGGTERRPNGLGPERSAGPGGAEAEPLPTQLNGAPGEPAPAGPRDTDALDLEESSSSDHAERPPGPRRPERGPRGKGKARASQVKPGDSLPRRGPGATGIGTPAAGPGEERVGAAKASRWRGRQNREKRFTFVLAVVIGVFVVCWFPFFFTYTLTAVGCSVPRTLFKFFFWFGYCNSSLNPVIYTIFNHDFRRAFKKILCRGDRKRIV

hERK4 = target: T26, hERK4 (Homo sapiens, UniProt P31152); assay: KINOMEscan; format: binding
T26 construct: purchased DiscoverX
T26 sequence (P31152 whole entry): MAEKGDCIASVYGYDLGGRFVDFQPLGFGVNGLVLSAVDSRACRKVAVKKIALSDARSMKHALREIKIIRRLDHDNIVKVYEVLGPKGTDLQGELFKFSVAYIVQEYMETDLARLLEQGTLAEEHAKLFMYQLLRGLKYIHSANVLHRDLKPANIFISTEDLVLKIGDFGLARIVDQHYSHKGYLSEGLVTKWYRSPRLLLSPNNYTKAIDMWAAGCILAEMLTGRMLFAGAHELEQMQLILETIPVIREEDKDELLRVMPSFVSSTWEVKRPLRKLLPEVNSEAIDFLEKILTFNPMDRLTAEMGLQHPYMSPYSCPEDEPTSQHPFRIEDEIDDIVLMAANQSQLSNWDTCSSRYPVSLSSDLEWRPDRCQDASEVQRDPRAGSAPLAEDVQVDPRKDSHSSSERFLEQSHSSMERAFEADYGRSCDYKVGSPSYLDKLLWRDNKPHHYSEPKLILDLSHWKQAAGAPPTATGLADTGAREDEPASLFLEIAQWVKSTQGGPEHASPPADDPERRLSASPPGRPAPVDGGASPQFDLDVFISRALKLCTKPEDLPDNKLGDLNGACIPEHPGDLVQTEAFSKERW

hDYRK2 = target: T27, hDYRK2 (Homo sapiens, UniProt Q92630); assay: KINOMEscan; format: binding
T27 construct: purchased DiscoverX
T27 sequence (Q92630 whole entry): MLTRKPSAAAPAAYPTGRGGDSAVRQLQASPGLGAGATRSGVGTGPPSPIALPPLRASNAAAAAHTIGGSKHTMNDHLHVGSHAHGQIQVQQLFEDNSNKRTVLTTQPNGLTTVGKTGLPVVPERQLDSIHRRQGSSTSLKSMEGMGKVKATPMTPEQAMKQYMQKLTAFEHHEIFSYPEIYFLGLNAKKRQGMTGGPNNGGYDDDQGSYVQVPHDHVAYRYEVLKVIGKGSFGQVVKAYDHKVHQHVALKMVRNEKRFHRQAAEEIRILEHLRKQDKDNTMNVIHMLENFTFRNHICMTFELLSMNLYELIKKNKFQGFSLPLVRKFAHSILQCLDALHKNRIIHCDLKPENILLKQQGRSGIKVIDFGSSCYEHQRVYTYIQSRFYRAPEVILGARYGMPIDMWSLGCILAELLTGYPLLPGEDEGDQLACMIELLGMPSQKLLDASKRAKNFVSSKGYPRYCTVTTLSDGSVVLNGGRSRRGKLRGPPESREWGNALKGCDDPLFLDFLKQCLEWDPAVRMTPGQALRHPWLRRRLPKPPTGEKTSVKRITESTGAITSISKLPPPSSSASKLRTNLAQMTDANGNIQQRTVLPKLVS

hANKK1 = target: T28, hANKK1 (Homo sapiens, UniProt Q8NFD2); assay: KINOMEscan; format: binding
T28 construct: purchased DiscoverX

T2 sequence (Q9BRS2 whole entry): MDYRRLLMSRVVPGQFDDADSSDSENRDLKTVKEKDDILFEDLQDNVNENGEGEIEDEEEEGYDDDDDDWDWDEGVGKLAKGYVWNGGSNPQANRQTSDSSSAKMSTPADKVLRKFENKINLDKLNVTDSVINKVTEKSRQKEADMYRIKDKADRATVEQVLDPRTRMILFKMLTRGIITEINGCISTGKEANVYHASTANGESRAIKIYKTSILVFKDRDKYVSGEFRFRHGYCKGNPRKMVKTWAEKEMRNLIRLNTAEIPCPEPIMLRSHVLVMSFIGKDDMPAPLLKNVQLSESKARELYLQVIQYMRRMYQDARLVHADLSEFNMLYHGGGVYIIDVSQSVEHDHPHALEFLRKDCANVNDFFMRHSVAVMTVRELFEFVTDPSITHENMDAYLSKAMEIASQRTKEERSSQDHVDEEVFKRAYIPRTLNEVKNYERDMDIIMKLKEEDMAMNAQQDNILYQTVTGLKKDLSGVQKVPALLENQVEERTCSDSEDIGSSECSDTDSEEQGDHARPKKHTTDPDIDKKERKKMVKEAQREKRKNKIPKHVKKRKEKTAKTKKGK

For Cc1cn(CCN2CCN(c3ccccc3-c3cc(C#N)cc(C(=O)NCCCN4CCCC4)c3)CC2)c2ccccc12 [LLY-507, 3-cyano-5-{2-[4-[2-(3-methylindol-1-yl)ethyl]piperazin-1-yl]-phenyl}-N-[(3-pyrrolidin-1-yl)propyl]benzamide], the IC50 (hSYK) was over 20 µM, the IC50 (hRIOK1) was over 20 µM and the IC50 (hRSK2(Kin.Dom.2-C-term)) was over 20 µM. For the same compound, the IC50 (hAMPK-alpha2) was over 20 µM, the IC50 (hFAK) was over 20 µM and the IC50 (hYANK2) was over 20 µM. For the same compound, the IC50 (hCLK4) was over 20 µM, the “% Effect, Potentiation” value (hM2) was -32.2% and the IC50 (hERBB3) was over 20 µM. It also gave an IC50 (hABL1(T315I)) of over 20 µM, an IC50 (hCSNK2A2) of over 20 µM and an IC50 (hHIPK1) of over 20 µM. For the same compound, the “% Effect, Stimulation” value (hD2L) was 10.1%, the IC50 (hKIT(L576P)) was over 20 µM and the IC50 (hEPHB2) was over 20 µM. It also gave an IC50 (hTGFBR2) of over 20 µM, an IC50 (hERBB4) of over 20 µM and an IC50 (hHIPK3) of over 20 µM. The IC50 (hFRK) was over 20 µM, the IC50 (hTEC) was over 20 µM and the IC50 (hRIOK2) was over 20 µM. The IC50 (hWEE1) was over 20 µM, the IC50 (hRSK3(Kin.Dom.2-C-term)) was over 20 µM and the IC50 (hMAP3K15) was over 20 µM. The IC50 (hVRK2) was over 20 µM, the inhibition at 10 µM (hADRα2A) was -27.7% and the IC50 (hERK4) was over 20 µM. For the same compound, the IC50 (hDYRK2) was over 20 µM and the IC50 (hANKK1) was over 20 µM.
